Source: patent US20260274892A1, “MACROCYCLIC BROAD SPECTRUM ANTIBIOTICS” (RQx Pharmaceuticals, Inc., priority 2017, published 2026)

Experiments:
[1] = system: Methicillin Resistant Staphylococcus aureus strain USA 200; assay: Minimum inhibitory concentration (MIC), CLSI broth micro-dilution, S. aureus; format: cell-based; conditions: Staphylococcus aureus, MRSA / USA200; Table 6; MRSA USA 200; cation adjusted Mueller Hinton Broth + 0.002% Tween-80; 35° C., 22 hours
Method in brief: (§1)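 Colonies grown 20 h at 35° C on Trypticase Soy agar (MRSA) or Luria agar (E. coli) were suspended in cation-adjusted Mueller Hinton broth with 0.002% Tween-80. Suspensions were added at OD600 0.0005 to 10-point twofold compound dilutions, then incubated 22 h at 35° C.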

[2] = system: Escherichia coli ATCC 25922; assay: Minimum inhibitory concentration (MIC), CLSI broth micro-dilution, E. coli; format: cell-based; conditions: Escherichia coli, ATCC25922, 22 h, Table 6, cation adjusted Mueller Hinton Broth + 0.002% Tween-80, 35° C.
Method in brief: as §1

MIC [1] [µM]	MIC [2] [µM]	SMILES
0.016	0.094	Cc1nc(-c2ccc3c(c2)CCC3(C)C)nc(C)c1C(=O)N[C@@H](CCN)C(=O)N(C)[C@@H]1C(=O)N[C@@H](C)C(=O)N[C@H](C(=O)NCC#N)Cc2ccc(OCCN)c(c2)-c2cc1ccc2OCCN (racemic) [Compound 269, rac-(8S,11S,14S)-3,18-bis(2-aminoethoxy)-N-(cyanomethyl)-11-methyl-14-[methyl-[rac-(2S)-4-amino-2-[[2-(1,1-dimethylindan-5-yl)-4,6-dimethyl-pyrimidine-5-carbonyl]amino]butanoyl]amino]-10,13-dioxo-9,12-diazatricyclo[13.3.1.12,6]icosa-1(18),2(20),3,5,15(19),16-hexaene-8-carboxamide]
0.012	0.064	Cc1nc(-c2ccc3c(c2)CCCC3(C)C)nc(C)c1C(=O)N[C@@H](CCN)C(=O)N(C)[C@@H]1C(=O)N[C@@H](C)C(=O)N[C@H](C(=O)NCC#N)Cc2ccc(OCCN)c(c2)-c2cc1ccc2OCCN (racemic) [Compound 270, rac-(8S,11S,14S)-3,18-bis(2-aminoethoxy)-N-(cyanomethyl)-11-methyl-14-[methyl-[rac-(2S)-4-amino-2-[[2-(1,1-dimethyltetralin-6-yl)-4,6-dimethyl-pyrimidine-5-carbonyl]amino]butanoyl]amino]-10,13-dioxo-9,12-diazatricyclo[13.3.1.12,6]icosa-1(18),2(20),3,5,15(19),16-hexaene-8-carboxamide]
0.032	0.26	Cc1nc(-c2ccc3c(c2)OCCC3(C)C)nc(C)c1C(=O)N[C@@H](CCN)C(=O)N(C)[C@@H]1C(=O)N[C@@H](C)C(=O)N[C@H](C(=O)NCC#N)Cc2ccc(OCCN)c(c2)-c2cc1ccc2OCCN (racemic) [Compound 271, rac-(8S,11S,14S)-3,18-bis(2-aminoethoxy)-N-(cyanomethyl)-11-methyl-14-[methyl-[rac-(2S)-4-amino-2-[[2-(4,4-dimethylchroman-7-yl)-4,6-dimethyl-pyrimidine-5-carbonyl]amino]butanoyl]amino]-10,13-dioxo-9,12-diazatricyclo[13.3.1.12,6]icosa-1(18),2(20),3,5,15(19),16-hexaene-8-carboxamide]
0.012	0.065	CC(C)=C(C)c1ccc(-c2nc(C)c(C(=O)N[C@@H](CCN)C(=O)N(C)[C@@H]3C(=O)N[C@@H](C)C(=O)N[C@H](C(=O)NCC#N)Cc4ccc(OCCN)c(c4)-c4cc3ccc4OCCN)c(C)n2)cc1 (racemic) [Compound 272, rac-(8S,11S,14S)-3,18-bis(2-aminoethoxy)-N-(cyanomethyl)-11-methyl-14-[methyl-[rac-(2S)-4-amino-2-[[2-[4-(1,2-dimethylprop-1-enyl)phenyl]-4,6-dimethyl-pyrimidine-5-carbonyl]amino]butanoyl]amino]-10,13-dioxo-9,12-diazatricyclo[13.3.1.12,6]icosa-1(18),2(20),3,5,15(19),16-hexaene-8-carboxamide]
0.0082	0.099	CC(C)=Cc1ccc(-c2nc(C)c(C(=O)N[C@@H](CCN)C(=O)N(C)[C@@H]3C(=O)N[C@@H](C)C(=O)N[C@H](C(=O)NCC#N)Cc4ccc(OCCN)c(c4)-c4cc3ccc4OCCN)c(C)n2)cc1 (racemic) [Compound 273, rac-(8S,11S,14S)-3,18-bis(2-aminoethoxy)-N-(cyanomethyl)-11-methyl-14-[methyl-[rac-(2S)-4-amino-2-[[4,6-dimethyl-2-[4-(2-methylprop-1-enyl)phenyl]pyrimidine-5-carbonyl]amino]butanoyl]amino]-10,13-dioxo-9,12-diazatricyclo[13.3.1.12,6]icosa-1(18),2(20),3,5,15(19),16-hexaene-8-carboxamide]
0.023	0.063	Cc1nc(-c2ccc(C=C3CCCC3)cc2)nc(C)c1C(=O)N[C@@H](CCN)C(=O)N(C)[C@@H]1C(=O)N[C@@H](C)C(=O)N[C@H](C(=O)NCC#N)Cc2ccc(OCCN)c(c2)-c2cc1ccc2OCCN (racemic) [Compound 274, rac-(8S,11S,14S)-3,18-bis(2-aminoethoxy)-N-(cyanomethyl)-11-methyl-14-[methyl-[rac-(2S)-4-amino-2-[[2-[4-(cyclopentylidenemethyl)phenyl]-4,6-dimethyl-pyrimidine-5-carbonyl]amino]butanoyl]amino]-10,13-dioxo-9,12-diazatricyclo[13.3.1.12,6]icosa-1(18),2(20),3,5,15(19),16-hexaene-8-carboxamide]
0.012	0.094	Cc1nc(-c2ccc(CC3CCCC3)cc2)nc(C)c1C(=O)N[C@@H](CCN)C(=O)N(C)[C@@H]1C(=O)N[C@@H](C)C(=O)N[C@H](C(=O)NCC#N)Cc2ccc(OCCN)c(c2)-c2cc1ccc2OCCN (racemic) [Compound 275, rac-(8S,11S,14S)-3,18-bis(2-aminoethoxy)-N-(cyanomethyl)-11-methyl-14-[methyl-[rac-(2S)-4-amino-2-[[2-[4-(cyclopentylmethyl)phenyl]-4,6-dimethyl-pyrimidine-5-carbonyl]amino]butanoyl]amino]-10,13-dioxo-9,12-diazatricyclo[13.3.1.12,6]icosa-1(18),2(20),3,5,15(19),16-hexaene-8-carboxamide]
0.016	0.063	CCC(=Cc1ccc(-c2nc(C)c(C(=O)N[C@@H](CCN)C(=O)N(C)[C@@H]3C(=O)N[C@@H](C)C(=O)N[C@H](C(=O)NCC#N)Cc4ccc(OCCN)c(c4)-c4cc3ccc4OCCN)c(C)n2)cc1)CC (racemic) [Compound 276, rac-(8S,11S,14S)-3,18-bis(2-aminoethoxy)-N-(cyanomethyl)-11-methyl-14-[methyl-[rac-(2S)-4-amino-2-[[2-[4-(2-ethylbut-1-enyl)phenyl]-4,6-dimethyl-pyrimidine-5-carbonyl]amino]butanoyl]amino]-10,13-dioxo-9,12-diazatricyclo[13.3.1.12,6]icosa-1(18),2(20),3,5,15(19),16-hexaene-8-carboxamide]
0.016	0.13	CCC(CC)Cc1ccc(-c2nc(C)c(C(=O)N[C@@H](CCN)C(=O)N(C)[C@@H]3C(=O)N[C@@H](C)C(=O)N[C@H](C(=O)NCC#N)Cc4ccc(OCCN)c(c4)-c4cc3ccc4OCCN)c(C)n2)cc1 (racemic) [Compound 277, rac-(8S,11S,14S)-3,18-bis(2-aminoethoxy)-N-(cyanomethyl)-11-methyl-14-[methyl-[rac-(2S)-4-amino-2-[[2-[4-(2-ethylbutyl)phenyl]-4,6-dimethyl-pyrimidine-5-carbonyl]amino]butanoyl]amino]-10,13-dioxo-9,12-diazatricyclo[13.3.1.12,6]icosa-1(18),2(20),3,5,15(19),16-hexaene-8-carboxamide]
0.0078	0.094	CCC/C=C/c1ccc(-c2nc(C)c(C(=O)N[C@@H](CCN)C(=O)N(C)[C@@H]3C(=O)N[C@@H](C)C(=O)N[C@H](C(=O)NCC#N)Cc4ccc(OCCN)c(c4)-c4cc3ccc4OCCN)c(C)n2)cc1 (racemic) [Compound 278, rac-(8S,11S,14S)-3,18-bis(2-aminoethoxy)-N-(cyanomethyl)-11-methyl-14-[methyl-[rac-(2S)-4-amino-2-[[4,6-dimethyl-2-[4-[rac-(E)-pent-1-enyl]phenyl]pyrimidine-5-carbonyl]amino]butanoyl]amino]-10,13-dioxo-9,12-diazatricyclo[13.3.1.12,6]icosa-1(18),2(20),3,5,15(19),16-hexaene-8-carboxamide]
